Values after ≈ are worked out from the molar mass of the structure shown.
Columns and labels:
Candida albicans = assay: Antimicrobial MIC protocol, Candida albicans; format: cell-based, Candida albicans (ATCC strain 44506); details: lowest concentration which completely inhibited growth, 1000 cells/mL, 37° C. overnight
Experimental: (§1) Unless otherwise noted, all media were autoclaved at 121° C. for 15 minutes.
Candida albicans: C. albicans (ATCC strain 44506 was grown on Sabouraud dextrose agar to produce single colonies, one of which was used to inoculate Sabouraud dextrose broth. The broth was incubated at 37° C. with shaking at 200 rpm for 18 hours. The resultant culture was brought to 10% (v/v) glycerol, frozen at -80° C., and used as the inoculum for the anti-Candida assay.
Two-fold dilutions of the test compound were prepared in 50 μL volumes of a suitable solvent using 96-well microtiter plates. In a separate 96-well plate, 35 μL volumes of either Sabouraud dextrose broth or RPMI-1640 were placed in each well. The test compound (5 μL) was then transferred to the broth. An inoculum of C. albicans in the appropriate medium was added to give a cell density of 1000 cells/mL and a total volume of 50 μL. Plates were incubated at 37° C. overnight.

[1] = system: P388 murine leukemia cells; assay: P388 in vitro antitumor screen (inhibition of P388 cell proliferation, MTT assay); format: cell-based; details: Mus musculus; for IC50: P388 cells, 48-hour incubation, MTT assay
Experimental: P388 murine leukemia cells, obtained from the National Cancer Institute, Bethesda, MD, were maintained at 37° C. in 5% CO2 in humidified air. Growth medium was Roswell Park Memorial Institute medium 1640 supplemented with 10% heat-inactivated horse serum. Stock cultures of P388 cells were grown in antibiotic-free growth medium and were subcultured (10^5 cells/ml, 25 ml cultures in T-25 plastic tissue culture flasks) every 2-3 days. […] An appropriate volume of the dilution was transferred to duplicate wells in a 96-well plate, evaporated to dryness, and 200 μl of growth medium-containing cells at a density of 1×10^5 cells/ml were added per well (final concentration of extract was 20 μg/ml). […] For daily quality control, each technician determines the IC50 of fluorouracil for inhibition of P388 cell proliferation. After 48-hour incubations, cell number was determined with the MTT assay (below), calculated as a percent of untreated cell growth, converted to percent inhibition, and reported to the chemist requesting the screen.
The initial determination of an IC50 value for inhibition of P388 cell proliferation with a crude, semipure, or pure sample was made by diluting the sample in methanol to the appropriate concentration, and then serial 1:1 dilutions were made in duplicate in a 96-well plate, such that the final concentrations in the assay were 20, 10, 5, 1.25, and 0.625 μg/ml. After solvent was evaporated to dryness, cells were added to each well as described above. After 48-hour incubations, cell numbers were determined with the MTT assay, converted to percent control, and plotted versus the log of the sample concentration. Curves were fitted by least-squares linear regression of logit-transformed data and the concentration of sample that inhibited cell proliferation by 50% was reported to the chemist requesting the screen. If the IC50 value was less than 0.625 μg/ml, additional serial dilutions were made and tested for activity.
MTT or 3-(4,5-dimethylthiazol-2-yl)-2,5-diphenyl-tetrazolium bromide is used in an established method (J. Immunol. Methods [1983] 65:55-63) to enumerate cells rather than "Coulter counting." For screening purposes, the correlation between percent inhibition determined for actual crude extracts with the Coulter counter and MTT method was very good (r=0.953, n=102 separate determinations of activity at 20 μg/ml), and no extract that was positive as determined by actual cell counts was lost using the MTT assay.

Bacillus subtilis = assay: Antimicrobial disc diffusion assay, Bacillus subtilis; format: cell-based, Bacillus subtilis (ATCC strain 6633); details: 20 μg/disc, 6.35 mm paper discs, overnight at 37° C., read-out: Antimicrobial Bacillus subtilis zone (diameter of the zone of growth inhibition)
Experimental: as §1
Standard spore stocks (ATCC strain 6633 were purchased from Difco (#0453-36-0).
B. subtilis was inoculated into Penassay medium (1 mL of stock per 200 mL agar), melted, and cooled to 45° C. Plates were poured as described above.
Paper discs (6.35 mm) were impregnated with the test substance and allowed to dry. They were then placed onto the surface of a test plate prepared as detailed above. Plates were incubated overnight at 37° C., after which time the zones of growh inhibition could be read. These were expressed as the diameter of the zone in millimeters. Standard drugs were used in all cases.

Compound | MIC (Candida albicans) [µg/mL] | IC50 [1] [µg/mL] | zone of inhibition at 20 µg/disc (Bacillus subtilis) [mm] | inhibition at 0.2 µg/mL ([1]; P388, 48 h, read-out: inhibition of cell replication (positive control)) [%]
Brc1ccc2c(-c3c[nH]c(-c4c[nH]c5cc(Br)ccc45)n3)c[nH]c2c1 [Nortopsentin A] | 3.1 (≈ 6.8 µM) | 7.6 (≈ 16.7 µM) | 8 | 
Brc1ccc2c(-c3nc(-c4c[nH]c5ccccc45)c[nH]3)c[nH]c2c1 [Nortopsentin B] | 6.2 (≈ 16.4 µM) | 7.8 (≈ 20.7 µM) | 9 | 
Brc1ccc2c(-c3c[nH]c(-c4c[nH]c5ccccc45)n3)c[nH]c2c1 [Nortopsentin C] | 12.5 (≈ 33.1 µM) | 1.7 (≈ 4.51 µM) | 9 | 
Cn1c(-c2cn(C)c3ccccc23)c[n+](C)c1-c1cn(C)c2cc(Br)ccc12 [Tetramethylnortopsentin B] | > 50 | 0.34 | 12 | 
O=c1[nH]cc(F)c(=O)[nH]1 [fluorouracil, reference compound] |  |  |  | ~95
